Reference: patent publication US8053439B2, “Benzophenone derivatives useful for inhibiting formation of microtubule” (Chong Kun Dang Pharmaceutical Corp., priority 2006, dated 2011)

What follows are molecules tested on HL60 cells (assay: Inhibition effect of HL60 cell line growth (MTT, 3 days)). Conditions: Homo sapiens, HL-60, 72 h, read-out: HL60 Growth Inhibition.
Format: cell-based
Method: 1. Inhibition Effect of HL60 Cell Line Growth
A 10% FBS-contained RPMI1640 badge was used for culturing HL60 cells. The test substance was prepared by dissolving in DMSO to a concentration of 10 mg/ml, and continuously diluting with PBS to a final concentration of 100 μg/ml to 0.03 μg/ml. In a 96-well microplate, 180 μl of the badge containing 6.0×10^4 cells/ml of cells and 20 μl of continuously diluted test substance were added. The mixture was cultured at 37° C. with 5% CO2 atmosphere for 3 days. After completion of the cultivation, 50 μl of a solution of 1.25 mg/ml MTT (3-(4,5-dimethylthiazol-2-yl)-2,5-diphenyltetrazolium bromide) dissolved in PBS was added to all wells, and the resulting mixture was reacted at 37° C. for 3 hours. Thus formed formazan crystals were dissolved in 150 μl of DMSO, and an absorbance was measured at 570 nm.

SMILES | IC50
COc1cc(C(=O)c2cc(-c3ccco3)cc(OC)c2OC)cc(OC)c1OC [Compound 206, (5-(furan-2-yl)-2,3-dimethoxyphenyl)(3,4,5-trimethoxyphenyl)methanone] | 0.145 µM

Same assay, conditions: Homo sapiens, HL-60, 72 h; HL60 cells, 3 days culture, MTT, absorbance 570 nm; read-out: HL60 Growth Inhibition

SMILES | IC50
COc1cc(C(=O)c2cc(-c3ncco3)ccc2NC(C)=O)cc(OC)c1OC [Compound 296, N-(4-(oxazol-2-yl)-2-(3,4,5-trimethoxybenzoyl)phenyl)acetamide] | 1.23 µM
COc1cc(C(=O)c2cc(-c3cccs3)ccc2N)cc(OC)c1OC [Compound 283, (2-amino-5-(thiophen-2-yl)phenyl)(3,4,5-trimethoxyphenyl)methanone] | 0.048 µM
COc1cc(C(=O)c2cc(-c3nccs3)ccc2-c2cncnc2)cc(OC)c1OC [Compound 365, (2-(pyrimidin-5-yl)-5-(thiazol-2-yl)phenyl)(3,4,5-trimethoxyphenyl)methanone] | 0.07 µM
COc1cc(C(=O)c2cc(-c3ccco3)ccc2NCCCO)cc(OC)c1OC [Compound 341, (5-(furan-2-yl)-2-(3-hydroxypropylamino)phenyl)(3,4,5-trimethoxyphenyl)methanone] | 0.11 µM
COc1ccc(-c2ccco2)cc1C(=O)c1cc(OC)c(OC)c(OC)c1 [Compound 203, (5-(furan-2-yl)-2-methoxyphenyl)(3,4,5-trimethoxyphenyl)methanone] | 0.035 µM
COc1cc(C(=O)c2cccc(-c3csc(N)n3)c2)cc(OC)c1OC [Compound 570, (3-(2-aminothiazol-4-yl)phenyl)(3,4,5-trimethoxyphenyl)methanone] | 0.12 µM
COc1cc(C(=O)c2ccc(-c3cccc(NS(C)(=O)=O)c3)cc2N)cc(OC)c1OC [Compound 494, N-(3′-amino-4′-(3,4,5-trimethoxybenzoyl)-biphenyl-3-yl)methanesulfonamide] | 0.12 µM
COc1cc(C(=O)c2cc(-c3ncco3)ccc2-n2cncn2)cc(OC)c1OC [Compound 359, (5-(oxazol-2-yl)-2-(H-1,2,4-triazol-1-yl)phenyl)(3,4,5-trimethoxyphenyl)methanone] | 0.1 µM
COc1cc(C(=O)c2cc(-c3ccccn3)ccc2-n2cncn2)cc(OC)c1OC [Compound 346, (5-(pyridin-2-yl)-2-(1H-1,2,4-triazol-1-yl)phenyl)(3,4,5-trimethoxyphenyl)methanone] | 0.1 µM
COc1cc(C(=O)c2cc(-c3ccco3)ccc2NS(C)(=O)=O)cc(OC)c1OC [Compound 235, N-(4-(furan-2-yl)-2-(3,4,5-trimethoxybenzoyl)phenyl)methanesulfonamide] | 0.28 µM
COc1cc(C(=O)c2ccc(-c3cccc(C#N)c3)cc2-n2cncn2)cc(OC)c1OC [Compound 506, 3′-[1,2,4]triazol-1-yl-4′-(3,4,5-trimethoxybenzoyl)-biphenyl-3-carbonitrile] | 0.16 µM
COc1cc(C(=O)c2cc(-c3ccccn3)ccc2N)cc(OC)c1OC [Compound 293, (2-amino-5-(pyridin-2-yl)phenyl)(3,4,5-trimethoxyphenyl)methanone] | 0.017 µM
COc1cc(C(=O)c2cc(-c3ccccn3)ccc2NCCCO)cc(OC)c1OC [Compound 380, (2-(3-hydroxypropylamino)-5-(pyridin-2-yl)phenyl)(3,4,5-trimethoxyphenyl)methanone] | 0.11 µM
COc1ccc(-c2ccco2)cc1C(=O)c1cc(CO)c(OC)c(OC)c1 [Compound 249, (5-(furan-2-yl)-2-methoxyphenyl)(3-(hydroxymethyl)-4,5-dimethoxyphenyl)methanone] | 0.12 µM
COc1cc(C(=O)c2cc(-c3ccc[nH]3)ccc2NCCCO)cc(OC)c1OC [Compound 363, (2-(3-hydroxypropylamino)-5-(1H-pyrrole-2-yl)phenyl)(3,4,5-trimethoxyphenyl)methanone] | 0.11 µM
Nc1nc(-c2ccc(C(=O)c3ccccc3)c(-n3cncn3)c2)cs1 [Compound 519, (4-(2-aminothiazol-4-yl)-2-(1H-1,24-triazol-1-yl)phenyl)(phenyl)methanone] | 25 µM
COc1cc(C(=O)c2cc(-c3ccco3)ccc2[N+](=O)[O-])cc(OC)c1OC [Compound 224, (5-(furan-2-yl)-2-nitrophenyl)(3,4,5-trimethoxyphenyl) methanone] | 0.11 µM
COc1cc(C(=O)c2cc(-c3ccco3)ccc2-n2cncn2)cc(OC)c1OC [Compound 322, (5-(furan-2-yl)-2-(1H-1,2,4-triazol-1-yl)phenyl)(3,4,5-trimethoxyphenyl)methanone] | 0.17 µM
COc1cc(C(=O)c2cc(-c3ccco3)ccc2OS(C)(=O)=O)cc(OC)c1OC [Compound 241, methanesulfonic acid 4-(furan-2-yl)-2-(3,4,5-trimethoxybenzoyl)phenyl] | 0.09 µM
COc1cc(C(=O)c2cc(-c3ccco3)ccc2NC(=O)CN)cc(OC)c1OC [Compound 237, 2-amino-N-(4-(furan-2-yl)-2-(3,4,5-trimethoxybenzoyl)phenyl)acetamide] | 0.27 µM

SMILES | IC50
COc1cc(C(=O)c2cccc(-c3nccs3)c2)cc(OC)c1OC [Compound 581] | 0.04 µM
COc1cc(C(=O)c2cc(-c3nccs3)ccc2-n2cncn2)cc(OC)c1OC [Compound 347, (5-(thiazol-2-yl)-2-(1H-1,2,4-triazol-1-yl)phenyl)(3,4,5-trimethoxyphenyl)methanone] | 0.03 µM
COCOc1c(C)cc(C(=O)c2cc(-c3ccco3)ccc2OC)cc1C [Compound 265, (5-(furan-2-yl)-2-methoxyphenyl)(4-(methoxymethoxy)-3,5-dimethylphenyl)methanone] | 0.39 µM
COc1ccc(-c2ccco2)cc1C(=O)c1cc(C)c(OC)c(C)c1 [Compound 264, (5-(furan-2-yl)-2-methoxyphenyl)(4-methoxy-3,5-dimethylphenyl)methanone] | 0.48 µM
COc1cc(C(=O)c2ccc(-c3ccco3)cc2-n2cncn2)cc(OC)c1OC [Compound 443, (4-(furan-2-yl)-2-(1H-1,2,4-triazol-1-yl)phenyl)(3,4,5-trimethoxyphenyl)methanone] | 0.08 µM
COc1cc(C(=O)c2cc(-c3nccs3)ccc2N)cc(CO)c1OC [Compound 286, (2-amino-5-(thiazol-2-yl)phenyl)(3-(hydroxymethyl)-4,5-dimethoxyphenyl)methanone] | 0.07 µM
COc1cc(C(=O)c2ccc(-c3nc(CO)cs3)cc2-n2cncn2)cc(OC)c1OC [Compound 554, ((4-(4-hydroxymethyl)thiazol-2-yl)-2-(1H-1,2,4-triazol-1-yl)phenyl)(3,4,5-trimethoxyphenyl)methanone] | 0.09 µM
COc1cc(C(=O)c2cc(-c3ccco3)ccc2NCCO)cc(OC)c1OC [Compound 323, (5-(furan-2-yl)-2-(2-hydroxyethylamino)phenyl)(3,4,5-trimethoxyphenyl)methanone] | 0.17 µM
C=CCNc1ccc(-c2ccco2)cc1C(=O)c1cc(OC)c(OC)c(OC)c1 [Compound 238, (2-(allylamino)-5-(furan-2-yl)phenyl)(3,4,5-trimethoxyphenyl)methanone] | 0.34 µM
COc1cc(C(=O)c2ccc(-c3csc(CO)n3)cc2-n2cncn2)cc(OC)c1OC [Compound 564, (4-(2-(hydroxymethyl)thiazol-4-yl)-2-(1H-1,2,4-triazol-1-yl)phenyl)(3,4,5-trimethoxyphenyl)methanone] | 0.09 µM
COc1cc(C(=O)c2cc(-c3ccsc3)ccc2N)cc(OC)c1OC [Compound 301, (2-amino-5-(thiophen-3-yl)phenyl)(3,4,5-trimethoxyphenyl)methanone] | 0.08 µM
COc1cc(C(=O)c2cccc(-c3ccc[nH]3)c2)cc(OC)c1OC [Compound 591, (3-(1H-pyrrol-2-yl)phenyl)(3,4,5-trimethoxyphenyl)methanone] | 0.2 µM
COc1cc(C(=O)c2ccc(-c3ccc[nH]3)cc2-n2cncn2)cc(OC)c1OC [Compound 599, (4-(1H-pyrrol-2-yl)-2-(1H-1,2,4-triazol-1-yl)phenyl)(3,4,5-trimethoxyphenyl)methanone] | 0.14 µM
COc1cc(C(=O)c2cc(-c3nccs3)ccc2-c2cnco2)cc(OC)c1OC [Compound 375, (2-(oxazol-5-yl)-5-(thiazol-2-yl)phenyl)(3,4,5-trimethoxyphenyl)methanone] | 0.04 µM
COc1cc(C(=O)c2cc(-c3csc(C)n3)ccc2N)cc(OC)c1OC [Compound 298, (2-amino-5-(2-methylthiazol-4-yl)phenyl)(3,4,5-trimethoxyphenyl)methanone] | 0.16 µM
COc1cc(C(=O)c2cc(-c3nccs3)ccc2NCCCO)cc(OC)c1OC [Compound 348, (2-(3-hydroxypropylamino)-5-(thiazol-2-yl)phenyl)(3,4,5-trimethoxyphenyl)methanone] | 0.1 µM
COc1cc(C(=O)c2ccc(-c3ccsc3)cc2F)cc(OC)c1OC [Compound 458, (2-fluoro-4-(thiophen-3-yl)phenyl)(3,4,5-trimethoxyphenyl)methanone] | 3.18 µM
COc1cc(C(=O)c2cc(-c3ccc[nH]3)ccc2N)cc(OC)c1OC [Compound 597, (2-amino-5-(1H-pyrrol-2-yl)phenyl)(3,4,5-trimethoxyphenyl)methanone] | 0.22 µM
COc1cc(C(=O)c2ccc(-c3csc(C(C)(C)O)n3)cc2-n2cncn2)cc(OC)c1OC [Compound 563, (4-(2-(2-hydroxypropan-2-yl)thiazol-4-yl)-2-(1H-1,2,4-triazol-1-yl)phenyl)(3,4,5-trimethoxyphenyl)methanone] | 0.25 µM
COc1ccc(-c2ccn[nH]2)cc1C(=O)c1cc(OC)c(OC)c(OC)c1 [Compound 598, (2-methoxy-5-(1H-pyrazol-5-yl)phenyl)(3,4,5-trimethoxyphenyl)methanone] | 0.39 µM
